Experimental findings from article PMC10850501 (Nature Communications, 2024) are described below.

“And” between values parts separate entries of the source, which are not always exact repeats. Equal values may be shown once. Read-outs that look alike come from different tables or passages of the source. Peptide text beside a SMILES is read from it.

Data set [1] has as its system SARS-CoV-2 Spike pseudotyped viruses, HEK-293T-ACE2 cells. It is filed as cell-based, SARS-CoV-2 (Wuhan-Hu-1 Spike). Conditions: for inhibition of pseudovirus, in words: 10 µM.
Data set [2] deals with SARS-CoV-2 live virus (B.1 lineage), Vero E6 cells. It is filed as cell-based.
Data set [3] in a line: Cytocompatibility (CCK8). It is filed as cell-based, human. Conditions: human, A549 cells, read-out: cytocompatibility, normalized to serum free media; for viability at 6 h, 10 µM: 0.01 mM peptide; for viability at 6 h, 100 µM: 0.1 mM peptide; for viability at 6 h, 1000 µM: 1 mM peptide. As for the experimental part: (§1) Cytocompatibility of the peptides was evaluated at 1, 0.1, and 0.01 mM with A549 cells (ATCC CCL-185) cultured in complete media consisting of 90% F-12K and 10% FBS. The A549 cells were utilized after their first passage and seeded at 10,000 cells/well in a 96-well plate for 24 hours. The conditions were prepared in serum-free A549 media and introduced into the wells for 6 hours, after which the condition media were aspirated, the wells were washed once with PBS, and 10 µL of CCK8 was added to 100 µL of PBS[32]. The plate was incubated for 1 hour and read on a Tecan M200 Infinite plate reader at an absorbance of 450 nm with a reference wavelength of 650 nm. The results were analyzed and normalized to the serum-free media control[28],[32],[76].

In data set [4] the test system is A549 cells. Description: Cytocompatibility (CCK8). Particulars: human alveolar epithelial A549 cells; 0.01-1 mM. It is filed as cell-based, human. As for the experimental part:
as §1

The mark [5] stands for this setting: replicate 1, CCK8, 6 h exposure, absorbance 450 nm.

For `CC[C@H](C)[C@H](NC(=O)CNC(=O)[C@H](CCCCN)NC(=O)[C@H](CC(C)C)NC(=O)[C@H](CO)NC(=O)[C@H](CC(C)C)NC(=O)[C@H](CO)NC(=O)[C@H](CC(C)C)NC(=O)[C@H](CO)NC(=O)[C@H](CC(C)C)NC(=O)[C@H](CO)NC(=O)[C@H](CC(C)C)NC(=O)[C@H](CO)NC(=O)[C@H](CC(C)C)NC(=O)[C@H](CO)NC(=O)[C@H](CCCCN)NC(C)=O)C(=O)N[C@@H](CCC(=O)O)C(=O)N[C@@H](CCC(=O)O)C(=O)N[C@@H](CCC(N)=O)C(=O)N[C@@H](C)C(=O)N[C@@H](CCCCN)C(=O)N[C@H](C(=O)N[C@@H](Cc1ccccc1)C(=O)N[C@@H](CC(C)C)C(=O)N[C@@H](CC(=O)O)C(=O)N[C@@H](CCCCN)C(=O)N[C@@H](Cc1ccccc1)C(=O)N[C@@H](CC(N)=O)C(=O)N[C@@H](Cc1c[nH]cn1)C(=O)N[C@@H](CCC(=O)O)C(=O)N[C@@H](C)C(=O)N[C@@H](CCC(=O)O)C(=O)N[C@@H](CC(=O)O)C(=O)N[C@@H](CC(C)C)C(=O)N[C@@H](Cc1ccccc1)C(=O)N[C@@H](Cc1ccc(O)cc1)C(=O)N[C@@H](CCC(N)=O)C(=O)N[C@@H](CO)C(N)=O)[C@@H](C)O` [KSBP1], in data set [1], the “Normalized, Average” value worked out at 0.8193 and the “inhibition of pseudovirus, in words” value is given as “significant decrease in inhibitory effect”.

`CSCC[C@H](NC(=O)[C@H](Cc1ccccc1)NC(=O)[C@H](CCCCN)NC(=O)[C@H](CC(=O)O)NC(=O)[C@H](CC(C)C)NC(=O)[C@H](Cc1ccccc1)NC(=O)[C@@H](NC(=O)[C@H](CCCCN)NC(=O)[C@H](CC(C)C)NC(=O)[C@H](CCC(N)=O)NC(=O)[C@H](CCC(=O)O)NC(=O)[C@H](CCC(=O)O)NC(=O)[C@H](CC(C)C)NC(=O)[C@H](C)NC(=O)[C@H](CO)NC(C)=O)[C@@H](C)O)C(=O)N[C@@H](Cc1c[nH]cn1)C(=O)N[C@@H](CCC(=O)O)C(=O)N[C@@H](CC(C)C)C(=O)N[C@@H](CCC(=O)O)C(=O)N[C@@H](CC(=O)O)C(=O)N[C@@H](CC(C)C)C(=O)N[C@@H](CC(C)C)C(=O)N[C@@H](Cc1ccc(O)cc1)C(=O)N[C@@H](CCC(N)=O)C(=O)N[C@@H](CC(C)C)C(=O)N[C@@H](C)C(=O)N[C@@H](CC(C)C)C(N)=O` [SBP2, reference compound] (Ac-SALEEQLKTFLDKFMHELEDLLYQLAL-NH2): the “in vitro live virus inhibition, in words” value in data set [2] is listed as “inhibition of live virus”. In addition, the viability at 6 h, 10 µM in data set [3] (replicate 1, CCK8, 6 h) is 105%; in data set [3] (replicate 2, CCK8, 6 h) it was 92.2%. The viability at 6 h, 100 µM in data set [3] (replicate 1, CCK8, 6 h) is 107%; in data set [3] (replicate 2, CCK8, 6 h), 104%; in data set [3] (replicate 3, CCK8, 6 h), 91.4%. For the same molecule, the viability at 6 h, 1000 µM in data set [3] (setting [5]) turned out to be 85.7%; in data set [3] (replicate 2, CCK8, 6 h), 122%; in data set [3] (replicate 3, CCK8, 6 h), 150%. Moreover, the “cytocompatibility, in words” value in data set [4] is given as “excellent cytocompatibility”.

Consider `CC[C@H](C)[C@H](NC(=O)[C@H](Cc1ccc(O)cc1)NC(=O)[C@@H](NC(=O)[C@H](CCCCN)NC(=O)[C@H](Cc1ccc(O)cc1)NC(=O)[C@H](CCC(N)=O)NC(C)=O)[C@@H](C)O)C(=O)N[C@@H](CC(=O)O)C(=O)N[C@@H](CCCCN)C(=O)N[C@@H](CC(N)=O)C(=O)N[C@@H](CC(N)=O)C(=O)N[C@@H](Cc1c[nH]cn1)C(=O)N[C@@H](Cc1ccc(O)cc1)C(=O)N[C@@H](C)C(=O)N[C@@H](CCC(=O)O)C(=O)N[C@@H](CC(=O)O)C(=O)N[C@@H](CCC(=O)O)C(=O)N[C@@H](CCCNC(=N)N)C(=O)N[C@@H](Cc1ccc(O)cc1)C(=O)N[C@@H](CCCCN)C(N)=O` [SBP3] (Ac-QYKTYIDKNNHYAEDERYK-NH2), for which, in data set [2], the “Comparative, Average” value worked out at 72.3704 and the “live virus plaque inhibition, in words” value is on record as “no major differences”. Moreover, in data set [3] (replicate 1, CCK8, 6 h), the viability at 6 h, 10 µM worked out at 104% and the viability at 6 h, 100 µM came out at 77.8%. In data set [3] (replicate 2, CCK8, 6 h), the viability at 6 h, 10 µM came out at 96.9%; the viability at 6 h, 100 µM was found to be 94.4%; the viability at 6 h, 1000 µM came to 139%. In data set [3] (replicate 3, CCK8, 6 h), the viability at 6 h, 100 µM worked out at 95.5%. The viability at 6 h, 1000 µM in data set [3] (setting [5]) was 144%.

In the case of `CC[C@H](C)[C@H](NC(=O)CNC(=O)[C@H](CCC(=O)O)NC(=O)[C@H](CC(C)C)NC(=O)[C@H](CO)NC(=O)[C@H](CC(C)C)NC(=O)[C@H](CO)NC(=O)[C@H](CC(C)C)NC(=O)[C@H](CO)NC(=O)[C@H](CC(C)C)NC(=O)[C@H](CO)NC(=O)[C@H](CC(C)C)NC(=O)[C@H](CO)NC(=O)[C@H](CC(C)C)NC(=O)[C@H](CO)NC(=O)[C@H](CCC(=O)O)NC(C)=O)C(=O)N[C@@H](CCC(=O)O)C(=O)N[C@@H](CCC(=O)O)C(=O)N[C@@H](CCC(N)=O)C(=O)N[C@@H](C)C(=O)N[C@@H](CCCCN)C(=O)N[C@H](C(=O)N[C@@H](Cc1ccccc1)C(=O)N[C@@H](CC(C)C)C(=O)N[C@@H](CC(=O)O)C(=O)N[C@@H](CCCCN)C(=O)N[C@@H](Cc1ccccc1)C(=O)N[C@@H](CC(N)=O)C(=O)N[C@@H](Cc1c[nH]cn1)C(=O)N[C@@H](CCC(=O)O)C(=O)N[C@@H](C)C(=O)N[C@@H](CCC(=O)O)C(=O)N[C@@H](CC(=O)O)C(=O)N[C@@H](CC(C)C)C(=O)N[C@@H](Cc1ccccc1)C(=O)N[C@@H](Cc1ccc(O)cc1)C(=O)N[C@@H](CCC(N)=O)C(=O)N[C@@H](CO)C(N)=O)[C@@H](C)O` [ESBP1], in data set [2], the “live virus inhibition, in words” value is on record as “significant improvement in viral inhibition”. In addition, the “Relative PFU” value in data set [2] (10 µM) is 51.2258 and 58.5437 and 80.4976. For the same molecule, in data set [1], the “Normalized, Average” value was determined as 0.2588 and the “inhibition of pseudovirus, in words” value is on record as “inhibited pseudovirus to a similar degree”.
